The source of these data is patent publication US8207345B2, “Tetrahydroquinolines for use as modulators of the mitotic motor protein Eg5” (Merck Patent GmbH, priority 2005, dated 2012).

For this experiment, the system named is cells. In words: cell cycle effect (G2/M), appended experiments. The class given is cell-based.

In the case of `N=C(N)c1ccc(OCCCCCOc2ccc(C(=N)N)cc2)cc1` [pentamidine], the “maintain cells in the G2/M cell cycle” value is recorded as “maintain cells in the G2/M cell cycle”.
